Measurements: PubChem BioAssay AID651630 (Sanford-Burnham Center for Chemical Genomics, 2012)
pIC50: −log10 of the molar value. The source made the active and inactive calls.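 Rule for the calls: active = lipid-stain IC50 at or below a set limit, with nuclear-stain toxicity IC50 at least five times higher; inactive = the rest.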

What was measured:
TAG = TAG lipid buildup inhibition with viability readout – cell-based, panel, Nile Red and DAPI fluorescence, H9c2, dose response (AID 651630); details: H9c2 cells, Nile Red TAG fluorescence, oleic acid;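 note: cells exposed to compound overnight before fixation and staining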
DAPI = test: as above; details: H9c2 cells, DAPI nuclear fluorescence (cytotoxicity counter-readout), oleic acid

SMILES	IC50 (TAG; mean of runs)	pIC50 (TAG; run 1)	pIC50 (TAG; run 2)	IC50 cytotoxicity (DAPI nuclear signal decrease) (DAPI; mean of runs)	IC50 cytotoxicity (DAPI nuclear signal decrease) (DAPI; run 1) [µM]	IC50 cytotoxicity (DAPI nuclear signal decrease) (DAPI; run 2) [µM]	pIC50 (TAG; mean of runs)
CN(Cc1ccc(Cl)cc1)C(=O)CCl	> 25 µM (inactive)	< 4.60	< 4.60	> 25 µM (inactive)	> 25	> 25	–
COc1ccc(Nc2nc3cc(-c4sccc4C)sc3c(=O)n2C)cc1OC	16.6 µM (inactive)	4.78	4.78	> 25 µM (inactive)	> 25	> 25	–
CCCc1cc(C(=O)N/N=C/c2ccc(CC)s2)c2ccccc2n1	> 25 µM (inactive)	< 4.60	< 4.60	> 25 µM (inactive)	> 25	> 25	–
CC(C)(C)NC(=O)C(c1ccc(-c2ccccc2)cc1)N(C[C@H]1CC[C@@H]([C@@H]2CC[C@H](CO)O2)O1)C(=O)c1ccc(-c2ccccc2)cc1 (stereo not given in full)	–	4.91	4.81	> 25 µM (inactive)	> 25	> 25	4.86
CCN1CCN(Cc2ccc(NC(=O)c3ccc(C)c(NC(=O)C(=O)c4c[nH]c5ccccc45)c3)cc2C(F)(F)F)CC1	–	5.21	5.42	23.8 µM (inactive)	24.4	23.1	5.30
COc1ccc(CNC(=O)C2CCN(c3nc(-c4ccccc4)nc4c3CCC4)CC2)cc1	–	4.94	4.79	> 25 µM (inactive)	> 25	> 25	4.86
CCOC(=O)c1c(CSC(=N)N)n(-c2ccccc2)c2cc(Br)c(OC(C)=O)cc12	18 µM (inactive)	4.77	4.72	> 25 µM (inactive)	> 25	> 25	–
CC(=O)Nc1cccc(-c2ccnc3c2CC(C)(C(=O)NCc2ccc(N(C)C)cc2)O3)c1 (stereo not given)	15.1 µM (inactive)	4.83	4.81	> 25 µM (inactive)	> 25	> 25	–
c1ccc(-c2nc(N3CCOCC3)cc(N3CCOCC3)n2)cc1	–	5.24	4.85	> 25 µM (inactive)	> 25	> 25	5.00
O=C(Nc1ccncc1)C1CCCN(S(=O)(=O)c2cccc3cccnc23)C1 (stereo not given)	> 25 µM (inactive)	< 4.60	< 4.60	> 25 µM (inactive)	> 25	> 25	–
CCCCCCCC(=O)Nc1cc(C(=O)NCCC)ccc1N1CCC2(CC1)CC(c1cccc(Br)c1)=NO2	15.2 µM (inactive)	4.93	4.73	> 25 µM (inactive)	> 25	> 25	–
Nc1cc2c(cc1Br)[nH]c(=O)c1ccccc12	–	5.06	5.10	> 25 µM (inactive)	> 25	> 25	5.08
Cc1cccc(Oc2nc(-c3ccccn3)nc3ccccc23)c1	> 25 µM (inactive)	< 4.60	< 4.60	> 25 µM (inactive)	> 25	> 25	–
COc1ccc(C(C(=O)NC(C)(C)C)N(Cc2cccs2)C(=O)CCC(=O)Nc2cc(C)on2)cc1 (stereo not given)	–	4.90	4.84	> 25 µM (inactive)	> 25	> 25	4.87
O=C(NC1CCCCC1)C(c1ccccc1)N(Cc1ccc2c(c1)OCO2)C(=O)c1cnsn1 (stereo not given)	18.7 µM (inactive)	4.77	4.69	> 25 µM (inactive)	> 25	> 25	–
COC(=O)C=C1CCC2C3CCC4=CC(=O)C(Br)CC4(C)C3C(=O)CC12C (stereo not given)	–	5.02	4.99	–	> 25	22.3	5.01
